{"source": "patent EP1949908A1", "about": "“Combined use of derivatives of GLP-1 analogs and PPAR ligands” (NOVO NORDISK A/S, priority 2001, dated 2002)", "tested_on": "male ZDF rat", "assay": "Four weeks treatment of overtly diabetic male ZDF rats: HbA1c and 24-hour glucose profile", "type": "in vivo", "settings": "mean±SEM, n=10, propionic acid compound 1 mg/kg oral gavage once daily, GLP-1 derivative 50 µg/kg subcutaneously twice daily", "experimental": "Ninety male ZDF rats aged 15-16 weeks were used in the study. Before treatment start, measurements of glucose and HbA1c were performed. All animals were overtly diabetic at the beginning of the study. Animals were allocated into the following 4 treatment groups:\n(-)-2-Ethoxy-3-(4-(2-phenoxazin-10-yl-ethoxy)-phenyl)-propionic acid and Vehicle-1 were administered by oral gavage once daily at approx. 07:30. Arg^34, Lys^26(N^ε-(γ-Glu(N^α-hexadecanoyl)))-GLP-1 (7-37) and Vehicle-2 were administered subcutaneously twice daily at approx. 07:30 and 14:30.\nAfter four weeks treatment, HbA1c was measured and 24-hour glucose profiles were assessed.\nDelta HbA1c refers to the numerical difference between the measurement after treatment and the measurement before treatment. Glucose24hAUC refers to the total area under the glucose concentration curve during the 24-hour period. A two-way analysis of variance was performed for each parameter and the significance of the interaction term evaluated.", "data": [{"smiles": "CCOC(Cc1ccc(OCCN2c3ccccc3Oc3ccccc32)cc1)C(=O)O", "note": "(single isomer, unassigned; (-)) [(-)-2-ethoxy-3-(4-(2-phenoxazin-10-yl-ethoxy)-phenyl)-propionic acid]", "values": [{"measurement": "Delta HbA1c", "setting": "after four weeks treatment minus before treatment", "result": "-0.81±0.36", "unit": "% points"}, {"measurement": "Glucose24hAUC", "setting": "total area under the glucose concentration curve during 24-hour period after four weeks treatment", "result": "456 ± 38", "unit": "mM·h"}]}]}
